Laboratory results from patent EP0097127A2, “Cephalosporin derivatives, process for their preparation and pharmaceutical compositions containing them” (CIBA-GEIGY AG, priority 1982, dated 1983).

Tests used:
Experiment in all cases: Chemotherapeutic activity against systemic infection in mice
Format in all cases: in vivo
[1] = tested on: Escherichia coli 205; conditions: systemic infection in mice with Escherichia coli 205; oral application
Procedure: (§1) Die Verbindungen der Formel I, worin Am eine freie Aminogruppe ist und ihre pharmazeutisch verwendbaren, nichttoxischen Salze sind wertvolle, antibiotisch wirksame Substanzen, die insbesondere als antibakterielle Antibiotika verwendet werden können. Beispielsweise haben sie in vivo bei oraler Applikation an der Maus bei systemischen Infektionen mit Staphylococcus aureus eine ED50 von etwa 70-100 mg/kg, und bei systemischen Infektionen mit Enterobakterien, z.B. Escherichia coli, Klebsiella pneumonia, Proteus mirabilis oder Proteus morganii eine ED50 von etwa 0.35 bis 100 mg/kg.
(§2) Chemotherapeutische Wirksamkeit gegen systemische Infektionen in Mäusen.

[2] = tested on: Klebsiella pneumonia; conditions: Klebsiella pneumoniae; systemic infection in mice with Klebsiella pneumonia; oral application
Procedure: as §1, §2

[3] = tested on: Escherichia coli 2018; conditions: systemic infection in mice with Escherichia coli 2018; oral application
Procedure: as §1, §2

[4] = tested on: Proteus morganii; conditions: Morganella morganii; systemic infection in mice with Proteus morganii; oral application
Procedure: as §1, §2

[5] = tested on: Proteus mirabilis; conditions: systemic infection in mice with Proteus mirabilis; oral application
Procedure: as §1, §2

[6] = tested on: Staphylococcus aureus 10B; conditions: systemic infection in mice with Staphylococcus aureus 10B; oral application
Procedure: as §1, §2

| Compound | ED50 [1] [mg/kg] | ED50 [2] [mg/kg] | ED50 [3] [mg/kg] | ED50 [4] [mg/kg] | ED50 [5] [mg/kg] | ED50 [6] [mg/kg] |
| --- | --- | --- | --- | --- | --- | --- |
| CO/N=C(\C(=O)N[C@@H]1C(=O)N2C(C(=O)OCC(=O)O[C@@H]3C[C@H](C)CC[C@H]3C(C)C)=CCS[C@H]12)c1csc(N)n1 [Testverbindung 3, Ceftizoxime-(9)-menthyloxycarbonylmethylester] | 4 | 4 | 1.5 | 100 | ≥ 30 | 30 to 100 |
| CO/N=C(\C(=O)N[C@@H]1C(=O)N2C(C(=O)OCC(=O)OC3CCCCC3)=CCS[C@H]12)c1csc(N)n1 [Testverbindung 2, Ceftizoxime-cyclohexyloxycarbonylmethylester] | 0.5 to 5 | 7 | 0.4 | > 100 | > 30 | > 100 |
| CO/N=C(\C(=O)N[C@@H]1C(=O)N2C(C(=O)OCC(=O)O[C@@H]3C[C@@H]4CC[C@@]3(C)C4(C)C)=CCS[C@H]12)c1csc(N)n1 [Testverbindung 1, Ceftizoxime-(ℓ)-bornyloxycarbonylmethylester] | 1 | 6 | 0.35 | 30 | 10 | 70 |
